Laboratory results reported in patent US5886011A, “Piperidine derivatives as substance P antagonists” (Hisamitsu Pharmaceutical Co., Inc., priority 1995, dated 1999).

Tests used:
cisplatin-induced emesis = experiment: Anti-emetic effect against cisplatin-induced emesis; format: in vivo, ferret (male)
Description: D. Anti-emetic Effect against Cisplatin-induced Emesis
The test was carried out using male ferret (approx. 1.5 kg.). Emesis was induced by intraperitoneal administration of cisplatin (10 mg/kg). 1 mg/kg of the subject compounds were administered orally just after the cisplatin administration. The results will be shown in Table 3 as the inhibition rates compared to the control group, using the number of vomits as indexes. Further, for comparisons, the following compounds A and C were used.

[1] = system: Substance P (guinea pig ileum); experiment: Bioassay test: Substance P-induced contraction of guinea pig ileum strips; details: 10^-7 M compound; contraction by 10^-8 M Substance P regarded as 100%
Description: B. Bioassay Test […] After exsanguinating guinea pigs (body weight: 500-600 g) deadly, ileum was removed and 2 cm of ileum strips were prepared. In a Tyrode's solution (10 ml, 37° C.) in which air is passed, containing 5.2 μM atropine and 4.1 μM indomethacin, the strips having 0.5 g resting tension was suspended, and contractions of muscle were recorded on a recording device (RTA-1200, manufactured by Nihon Kohden) via an isotonic transducer (TB-612T, manufactured by Nihon Kohden). Using three specimens per one group, effects of the subject drugs on the muscle contraction caused by 10^-8 M Substance P were determined.

Substance P = experiment: Antagonism test on Substance P-induced airway edema; format: in vivo, guinea pig (hartley male); details: Cavia porcellus, po, compared to the control group, read-out: Inhibition Rate (airway edema, dye transudated into trachea and main bronchi); for inhibition in vivo at 1 mg/kg: 1 mg/kg orally, thirty minutes before induction
Description: C. Antagonism Test on Substance P-induced Airway Edema
20 mg/kg of Evans' Blue and 1 nm/kg Substance P containing 200 I.U./kg of heparin were administered intravenously to hartley male guinea pigs in order to induce airway edema. After ten minutes, the guinea pigs were exsanguinated deadly. The amounts of the dye transudated into trachea and main bronchi were determined. 1 mg/kg of the subject compounds were administered orally at thirty minutes before the induction. […] Further, for comparison, the following compounds A and B were used.

[2] = molecular target: T1, Substance P receptor (guinea pig ileum longitudinal muscle) (Cavia porcellus, UniProt P30547); experiment: Receptor-binding test ([125I]SP ligand, guinea pig ileum longitudinal muscle receptor samples); details: 10^-8 M compound; [125I]SP 50 pM, 22° C., 20 minutes
T1 construct: ileum was removed and the longitudinal muscle was stripped off; from tissue; host or cells: guinea pig ileum longitudinal muscle, washed membrane pellets
T1 sequence (P30547 whole entry): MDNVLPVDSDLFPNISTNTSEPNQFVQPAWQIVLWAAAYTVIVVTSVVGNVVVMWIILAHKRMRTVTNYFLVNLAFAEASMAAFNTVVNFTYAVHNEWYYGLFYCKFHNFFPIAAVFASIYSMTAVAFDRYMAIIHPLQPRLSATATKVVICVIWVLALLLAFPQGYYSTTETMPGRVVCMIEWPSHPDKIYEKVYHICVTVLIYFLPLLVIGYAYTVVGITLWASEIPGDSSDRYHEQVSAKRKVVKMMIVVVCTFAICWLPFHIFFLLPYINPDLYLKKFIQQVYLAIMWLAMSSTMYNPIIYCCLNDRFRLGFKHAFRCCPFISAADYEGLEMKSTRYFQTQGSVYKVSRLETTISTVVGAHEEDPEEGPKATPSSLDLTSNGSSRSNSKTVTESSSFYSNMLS
Description: To the longitudinal muscles, 20 times of the wet weight of the buffer solution (1) (50 mM tris-HCl buffer solution containing 2 mM MgCl2 and 0.1 mM phenyl methyl sulfonyl-fluoride, pH 7.4) was added. The mixture was homogenized under ice-cooling and centrifuged at 48,000×G for 15 minutes. After removing the supernatant, the pellets were re-suspended in the buffer solution (1) and centrifuged at 48,000×G for 15 minutes. The buffer solution (2) (50 mM tris.HCl buffer solution containing 10 mM ethylenediaminetetraacetic acid and 300 mM KCl, pH 7.4) was added to the pellets and suspended to be reacted under ice-cooling for 60 minutes. The resulted reaction materials were centrifuged at 48,000×G for 15 minutes. After suspending the pellets in the buffer solution (1) and distributing, the mixture were centrifuged at 48,000×G for 15 minutes. The pellets were stored at -80° C. until used as receptor samples.
Thus obtained receptor samples were suspended in 50 mM tris-HCl buffer solution to be used. As the buffer solution, binding buffer solution (tris.HCl buffer solution containing 0.02% bovine serum albumin, 40 μg/ml bacitracin, 4 μg/ml chymostatin, 4 μg/ml leupeptin and 3 mM MnCl2, pH7.4) was used.

SD rats = experiment: Toxicity test, seven days; format: in vivo, rat (male SD); details: 3, 10 and 30 mg/kg, male SD rats
Description: 3, 10 and 30 mg/kg of the compound of Example 46 are administered to five male SD rats per one group for seven days. The compound had no influence on body weights gains, organ weights, numbers of erythrocytes nor numbers of leukocytes.

[3] = 1 mg/kg orally just after cisplatin (10 mg/kg i.p.), compared to the control group

SMILES | Inhibition Rate (number of vomits) (cisplatin-induced emesis; [3]) | Contriction Inhibition [1] | inhibition in vivo at 1 mg/kg (Substance P) | inhibition at 0.01 µM [2] | influence on body weights gains (SD rats) | influence on numbers of erythrocytes (SD rats) | influence on numbers of leukocytes (SD rats) | influence on organ weights (SD rats) | Inhibition Rate (number of vomits) (cisplatin-induced emesis; 10 mg/kg (comparison compound), orally just after cisplatin (10 mg/kg i.p.)) | inhibition in vivo at 10 mg/kg (Substance P; 10 mg/kg (comparison compound), orally)
CC(C)c1cc2c(c(CN[C@H]3CCCN[C@H]3c3ccccc3)c1)OCC2.Cl [Example 23, (2S,3S)-3-[(5-isopropyl-2,3-dihydrobenzofuran-7-yl)methyl]amino-2-phenylpiperidine hydrochloride] | 70% | 80.3% | 89% | 83.2% |  |  |  |  |  | 
CSc1cc2c(c(CN[C@H]3CCCN[C@H]3c3ccccc3)c1)OCC2.Cl [Example 46, (2S,3S)-3-[(5-methylthio-2,3-dihydrobenzofuran-7-yl)methyl]amino-2-phenylpiperidine hydrochloride] | 60% | 72.3% | 72% | 65.3% | no influence | no influence | no influence | no influence |  | 
Cl.FC(F)(F)Oc1cc2c(c(CN[C@H]3CCCN[C@H]3c3ccccc3)c1)OCC2 [Example 53, (2S,3S)-3-[(5-trifluoromethoxy-2,3-dihydrobenzofuran-7-yl)methyl]amino-2-phenylpiperidine hydrochloride] | 65% | 69.3% | 69% | 53.5% |  |  |  |  |  | 
Cl.c1ccc([C@@H]2NCCC[C@@H]2NCc2cc(C3CCCC3)cc3c2OCC3)cc1 [Example 25, (2S,3S)-3-[(5-cyclopentyl-2,3-dihydrobenzofuran-7-yl)methyl]amino-2-phenylpiperidine hydrochloride] | 73% | 85.1% | 90% | 89.2% |  |  |  |  |  | 
COc1ccccc1CN[C@H]1CCCN[C@H]1c1ccccc1.Cl [Compound A, (2S,3S)-3-(2-methoxybenzyl)amino-2-phenylpiperidine hydrochloride, reference compound] |  |  |  |  |  |  |  |  | 19% | 12%
